Results taken from patent US20050008896A1, “Luminous organic compound and manufacturing method” (Orient Chemical Ind., Ltd., priority 2003, published 2005).

How the values were obtained:
[1] = Fluorescence (photoluminescence) intensity in ethanol, fluorescence spectrophotometer RF-5300PC; assay type: physicochemical; conditions: for Fluorescence Intensity / center of Luminous Wave: 25 mg of compound in 100 ml of ethanol; for Relative Value of Fluorescence Intensity, Relative Value (2) (Related to Metal Complex Intermediate 3): metal complex intermediate 3 regarded as 1.00
Experimental: Fluorescence intensity of each obtained compound was measured in order to evaluate fluorescence property.
A method of the evaluation is as follows. 25 mg of each compound was dissolved in 100 ml of ethanol respectively. The fluorescence intensity, photoluminescence intensity, was measured by a fluorescence spectrophotometer RF-5300PC that is available from Shimadzu Corporation. The measured results of the luminous organic compounds 1 to 9 and 11, the comparative compounds 1 to 3 and the metal complex intermediate 1 to 3 are indicated in Table 3. […] The relative value (2) of the fluorescence intensity indicates the value related to the fluorescence intensity of the metal complex intermediate 3 regarded as 1.00.

[2] = stood at room temperature overnight
Experimental: A method of measurement of the solubility is as follows. After the prescribed amount of the compound was added to each solvent, it was heated by water bath and irradiated supersonic wave for 1 hour. It was stood at room temperature overnight, and filtrated. Obtained residue was dried. Amount of insoluble residue was weighed, and solubility (w/v %) was determined.

C[N+](C)(C)CCCC[N+](C)(C)C.O=C(C=C([O-])C(F)(F)F)c1cccs1.O=C(C=C([O-])C(F)(F)F)c1cccs1.O=C(C=C([O-])C(F)(F)F)c1cccs1.O=C(C=C([O-])C(F)(F)F)c1cccs1.O=C(C=C([O-])C(F)(F)F)c1cccs1.O=C(C=C([O-])C(F)(F)F)c1cccs1.O=C(C=C([O-])C(F)(F)F)c1cccs1.O=C(C=C([O-])C(F)(F)F)c1cccs1.[Eu+3].[Eu+3] [Luminous Organic Compound 8]
Relative Value of Fluorescence Intensity, Relative Value (1) (Related to Comparative Compound 3) [1]: 1.02
Fluorescence Intensity [1]: 510
center of Luminous Wave [1]: (613 nm)
Relative Value of Fluorescence Intensity, Relative Value (2) (Related to Metal Complex Intermediate 3) [1]: 1.03
Solubility, Ethanol [2]: 0.15 w/v %
Solubility, Ethyl Acetate [2]: 0.88 w/v %
Solubility, Methyl Ethyl Ketone [2]: over 10.0 w/v %
Solubility, Toluene [2]: 0.18 w/v %
Solubility, Xylene [2]: 0.10 w/v %

C[N+](C)(C)CCCC[N+](C)(C)C.O=C(C=C([O-])C(F)(F)F)c1ccccc1.O=C(C=C([O-])C(F)(F)F)c1ccccc1.O=C(C=C([O-])C(F)(F)F)c1ccccc1.O=C(C=C([O-])C(F)(F)F)c1ccccc1.O=C(C=C([O-])C(F)(F)F)c1ccccc1.O=C(C=C([O-])C(F)(F)F)c1ccccc1.O=C(C=C([O-])C(F)(F)F)c1ccccc1.O=C(C=C([O-])C(F)(F)F)c1ccccc1.[Eu+3].[Eu+3] [Luminous Organic Compound 9]
Relative Value of Fluorescence Intensity, Relative Value (1) (Related to Comparative Compound 3) [1]: 1.00
Fluorescence Intensity [1]: 502
center of Luminous Wave [1]: (612 nm)
Relative Value of Fluorescence Intensity, Relative Value (2) (Related to Metal Complex Intermediate 3) [1]: 1.02
Solubility, Ethanol [2]: 0.11 w/v %
Solubility, Ethyl Acetate [2]: 3.55 w/v %
Solubility, Methyl Ethyl Ketone [2]: over 10.0 w/v %
Solubility, Toluene [2]: 0.30 w/v %
Solubility, Xylene [2]: 0.12 w/v %

C[N+](C)(C)CCCC[N+](C)(C)C.O=C(C=C([O-])C(F)(F)F)c1ccc2ccccc2c1.O=C(C=C([O-])C(F)(F)F)c1ccc2ccccc2c1.O=C(C=C([O-])C(F)(F)F)c1ccc2ccccc2c1.O=C(C=C([O-])C(F)(F)F)c1ccc2ccccc2c1.O=C(C=C([O-])C(F)(F)F)c1ccc2ccccc2c1.O=C(C=C([O-])C(F)(F)F)c1ccc2ccccc2c1.O=C(C=C([O-])C(F)(F)F)c1ccc2ccccc2c1.O=C(C=C([O-])C(F)(F)F)c1ccc2ccccc2c1.[Al+3].[Al+3] [Luminous Organic Compound 11]
Relative Value of Fluorescence Intensity, Relative Value (1) (Related to Comparative Compound 3) [1]: 0.52
Fluorescence Intensity [1]: 262
center of Luminous Wave [1]: (455 nm)
Relative Value of Fluorescence Intensity, Relative Value (2) (Related to Metal Complex Intermediate 3) [1]: 0.53
Solubility, Ethanol [2]: 0.21 w/v %
Solubility, Ethyl Acetate [2]: 1.60 w/v %
Solubility, Methyl Ethyl Ketone [2]: over 10.0 w/v %
Solubility, Toluene [2]: 0.25 w/v %
Solubility, Xylene [2]: 0.10 w/v %
